Experimental data published in US20230183243A1, “HETEROARYL DERIVATIVES AND PHARMACEUTICAL COMPOSITION COMPRISING SAME AS ACTIVE INGREDIENT” (VORONOI INC., priority 2019, published 2023).

Columns and labels:
MDA-MB-231 cells = test: Inhibition of proliferation of triple-negative breast cancer cells, CellTiter-Glo; assay type: cell-based; details: Homo sapiens, 120 h; MDA-MB-231, cultured for 5 days
Procedure, shortened: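 MDA-MB-231 cells pre-cultured 24 h (5% CO2, 37 °C), then exposed to compound for 5 days at 12 three-fold dilutions, final 10 μM to 0.05 nM. Viability read by CellTiter-Glo luminescence after 10 min at 37 °C; growth inhibition calculated relative to untreated solvent-control cells.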

SHP-77 = test: Inhibition of proliferation of small cell lung cancer cells, CellTiter-Glo; assay type: cell-based; details: Homo sapiens, SHP77, 120 h; SHP-77, cultured for 5 days
Procedure, shortened: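 SHP-77 cells at 2,000–3,000 cells/well, cultured 24 h at 37° C, 5% CO2, then given 12 threefold compound dilutions, final 10 μM to 0.05 nM, for 5 days. Viability by CellTiter-Glo luminescence relative to solvent control. GI50 from concentration–response.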

TTK = molecular target: T1, TTK (Homo sapiens, UniProt P33981); test: TTK enzyme activity, ADP-Glo kinase assay; assay type: biochemical; parameters: purchased SignalChem T20-10G; details: purified human TTK, ATP 10 μM, 25° C., 2 hours
T1 sequence (P33981 1-857): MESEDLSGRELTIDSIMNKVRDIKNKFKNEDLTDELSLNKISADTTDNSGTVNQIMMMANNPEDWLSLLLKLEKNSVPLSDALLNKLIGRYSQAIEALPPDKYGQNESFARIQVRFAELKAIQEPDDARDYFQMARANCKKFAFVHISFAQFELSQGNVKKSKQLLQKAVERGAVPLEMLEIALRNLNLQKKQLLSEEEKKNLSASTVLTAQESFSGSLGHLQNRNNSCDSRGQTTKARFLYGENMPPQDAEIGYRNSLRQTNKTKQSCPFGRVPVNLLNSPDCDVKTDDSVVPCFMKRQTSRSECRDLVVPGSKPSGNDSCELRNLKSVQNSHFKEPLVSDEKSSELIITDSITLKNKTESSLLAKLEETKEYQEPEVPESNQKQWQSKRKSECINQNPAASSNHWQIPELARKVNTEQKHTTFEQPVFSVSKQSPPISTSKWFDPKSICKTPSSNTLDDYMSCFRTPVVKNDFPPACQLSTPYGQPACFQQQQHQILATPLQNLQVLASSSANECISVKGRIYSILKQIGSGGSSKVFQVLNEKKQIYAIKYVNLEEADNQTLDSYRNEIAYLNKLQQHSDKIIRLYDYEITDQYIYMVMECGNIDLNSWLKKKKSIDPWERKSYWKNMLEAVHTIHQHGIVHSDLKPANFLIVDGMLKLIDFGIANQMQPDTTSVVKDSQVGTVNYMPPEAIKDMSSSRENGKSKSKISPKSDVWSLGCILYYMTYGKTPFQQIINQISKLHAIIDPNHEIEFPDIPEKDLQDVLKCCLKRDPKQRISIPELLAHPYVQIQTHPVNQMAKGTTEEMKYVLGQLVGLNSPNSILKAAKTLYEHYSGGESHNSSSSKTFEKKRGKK
Procedure, shortened: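 ADP-Glo read-out; percent inhibition at each compound concentration was relative to the solvent-only control. The reactions contained 25 ng enzyme, 0.2 μg substrate and 10 μM ATP in 40 mM Tris-HCl pH 7.4 with 20 mM MgCl2, 0.5 mg/mL BSA and 50 μM DTT, and ran 2 h at 25 °C.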

| GI50 (MDA-MB-231 cells) | GI50 (SHP-77) | IC50 (TTK) | SMILES |
| --- | --- | --- | --- |
| < 100 nM | < 100 nM | 50 to 200 nM | COc1cc(-c2ccnn2C)ccc1Nc1nc(NC2CCCC(F)(F)C2)c2c(C#N)c[nH]c2n1 (stereo not drawn) [Example 152, 4-((3,3-difluorocyclohexyl)amino)-2-((2-methoxy-4-(1-methyl-1H-pyrazol-5-yl)phenyl)amino)-7H-pyrrolo[2,3-d] pyrimidine-5-carbonitrile] |
| < 100 nM | < 100 nM | 50 to 200 nM | Cn1nccc1-c1ccc(Nc2nc(NC3CCCC(F)(F)C3)c3c(C#N)c[nH]c3n2)c2c1OCCO2 (stereo not drawn) [Example 153] |
| < 100 nM | < 100 nM | < 50 nM | COc1cc(-c2nncn2C)ccc1Nc1nc(NC2CCCC(F)(F)C2)c2c(C#N)c[nH]c2n1 (stereo not drawn) [Example 154, 4-((3,3-difluorocyclohexyl)amino)-2-((2-methoxy-4-(4-methyl-4H-1,2,4-triazol-3-yl)phenyl)amino)-7H-pyrrolo[2,3-d] pyrimidine-5-carbonitrile] |
| < 100 nM | < 100 nM | < 50 nM | Cn1cc(-c2ccc(Nc3nc(NC4CCC(F)(F)C4)c4c(C#N)c[nH]c4n3)c3c2OCCO3)cn1 (stereo not drawn) [Example 159, 4-((3,3-difluorocyclopentyl)amino)-2-((8-(1-methyl-1H-pyrazol-4-yl)-2,3-dihydrobenzo[b][1,4]dioxin-5-yl)amino)-7H-pyrrolo[2,3-d] pyrimidine-5-carbonitrile] |
| < 100 nM | < 100 nM | < 50 nM | COc1cc(Nc2nc(NC3CCOC(C)(C)C3)c3c(C#N)c[nH]c3n2)ccc1-c1ccnn1C (stereo not drawn) [Example 162, 4-((2,2-dimethyltetrahydro-2H-pyran-4-yl)amino)-2-((3-methoxy-4-(1-methyl-1H-pyrazol-5-yl)phenyl)amino)-7H-pyrrolo[2,3-d] pyrimidine-5-carbonitrile] |
| < 100 nM | < 100 nM | < 50 nM | COc1cc(N2CCCS2(=O)=O)ccc1Nc1nc(NC2CCOCC2)c2c(C#N)c[nH]c2n1 [Example 165, 2-((4-(1,1-dioxidoisothiazolidin-2-yl)-2-methoxyphenyl)amino)-4-((tetrahydro-2H-pyran-4-yl)amino)-7H-pyrrolo[2,3-d] pyrimidine-5-carbonitrile] |
| < 100 nM | < 100 nM | < 50 nM | COC[C@@H](C)Nc1nc(Nc2ccc(-n3ccnc3C)cc2OC)nc2[nH]cc(C#N)c12 [Example 167, (R)-2-((2-methoxy-4-(2-methyl-1H-imidazol-1-yl)phenyl)amino)-4-((1-methoxypropan-2-yl)amino)-7H-pyrrolo[2,3-d] pyrimidine-5-carbonitrile] |
| < 100 nM | < 100 nM | < 50 nM | COC[C@@H](C)Nc1nc(Nc2ccc(-c3ccnn3C)cc2OC)nc2[nH]cc(C#N)c12 [Example 168, (R)-2-((2-methoxy-4-(1-methyl-1H-pyrazol-5-yl)phenyl)amino)-4-((1-methoxypropan-2-yl)amino)-7H-pyrrolo[2,3-d] pyrimidine-5-carbonitrile] |

Continued, molecule first:

| SMILES | GI50 (MDA-MB-231 cells) | GI50 (SHP-77) | IC50 (TTK) |
| --- | --- | --- | --- |
| COc1cc(-c2c(C)noc2C)ccc1Nc1nc(NC2CCCCCC2)c2c(C#N)c[nH]c2n1 [Example 149, 4-(cycloheptylamino)-2-((4-(3,5-dimethylisoxazol-4-yl)-2-methoxyphenyl)amino)-7H-pyrrolo[2,3-d] pyrimidine-5-carbonitrile] | < 100 nM | < 100 nM | 50 to 200 nM |
| Cn1cc(-c2ccc(Nc3nc(NC4CCCCCC4)c4c(C#N)c[nH]c4n3)c3c2OCCO3)cn1 [Example 150, 4-(cycloheptylamino)-2-((8-(1-methyl-1H-pyrazol-4-yl)-2,3-dihydrobenzo[b][1,4]dioxin-5-yl)amino)-7H-pyrrolo[2,3-d] pyrimidine-5-carbonitrile] | < 100 nM | < 100 nM | 50 to 200 nM |
| N#Cc1c[nH]c2nc(Nc3ccc(N4CCCC4=O)c4c3OCCO4)nc(NC3CCCCCC3)c12 [Example 151, 4-(cycloheptylamino)-2-((8-(2-oxopyrrolidin-1-yl)-2,3-dihydrobenzo[b][1,4]dioxin-5-yl)amino)-7H-pyrrolo[2,3-d] pyrimidine-5-carbonitrile] | < 100 nM | < 100 nM | < 50 nM |
| COc1cc(N2CCCCS2(=O)=O)ccc1Nc1nc(NC2CCCC2)c2c(C#N)c[nH]c2n1 [Example 155, 4-(cyclopentylamino)-2-((4-(1,1-dioxido-1,2-thiazinan-2-yl)-2-methoxyphenyl)amino)-7H-pyrrolo[2,3-d] pyrimidine-5-carbonitrile] | < 100 nM | < 100 nM | < 50 nM |
| N#Cc1c[nH]c2nc(Nc3ccc(N4CCCCS4(=O)=O)cc3)nc(NC3CCCC3)c12 [Example 156, 4-(cyclopentylamino)-2-((4-(1,1-dioxido-1,2-thiazinan-2-yl)phenyl)amino)-7H-pyrrolo[2,3-d] pyrimidine-5-carbonitrile] | < 100 nM | < 100 nM | < 50 nM |
| COc1cc(N2CCCS2(=O)=O)ccc1Nc1nc(NC2CCCC2)c2c(C#N)c[nH]c2n1 [Example 157, 4-(cyclopentylamino)-2-((4-(1,1-dioxidoisothiazolidin-2-yl)-2-methoxyphenyl)amino)-7H-pyrrolo[2,3-d] pyrimidine-5-carbonitrile] | < 100 nM | < 100 nM | < 50 nM |
| N#Cc1c[nH]c2nc(Nc3ccc(N4CCCS4(=O)=O)cc3)nc(NC3CCCC3)c12 [Example 158, 4-(cyclopentylamino)-2-((4-(1,1-dioxidoisothiazolidin-2-yl)phenyl)amino)-7H-pyrrolo[2,3-d] pyrimidine-5-carbonitrile] | < 100 nM | < 100 nM | < 50 nM |
| COc1cc(N2CCCCS2(=O)=O)ccc1Nc1nc(NC2CCOCC2)c2c(C#N)c[nH]c2n1 [Example 163, 2-((4-(1,1-dioxido-1,2-thiazinan-2-yl)-2-methoxyphenyl)amino)-4-((tetrahydro-2H-pyran-4-yl)amino)-7H-pyrrolo[2,3-d] pyrimidine-5-carbonitrile] | < 100 nM | < 100 nM | < 50 nM |
| N#Cc1c[nH]c2nc(Nc3ccc(N4CCCCS4(=O)=O)cc3)nc(NC3CCOCC3)c12 [Example 164, 2-((4-(1,1-dioxido-1,2-thiazinan-2-yl)phenyl)amino)-4-((tetrahydro-2H-pyran-4-yl)amino)-7H-pyrrolo[2,3-d] pyrimidine-5-carbonitrile] | < 100 nM | < 100 nM | < 50 nM |
| N#Cc1c[nH]c2nc(Nc3ccc(N4CCCS4(=O)=O)cc3)nc(NC3CCOCC3)c12 [Example 166, 2-((4-(1,1-dioxidoisothiazolidin-2-yl)phenyl)amino)-4-((tetrahydro-2H-pyran-4-yl)amino)-7H-pyrrolo[2,3-d] pyrimidine-5-carbonitrile] | < 100 nM | < 100 nM | < 50 nM |
| COC[C@@H](C)Nc1nc(Nc2ccc(-c3cnn(C)c3)c3c2OCCO3)nc2[nH]cc(C#N)c12 [Example 169] | < 100 nM | < 100 nM | < 50 nM |
| N#Cc1c[nH]c2nc(Nc3cccc4c3OCCO4)nc(NC3CCOCC3)c12 [Example 170, 2-((2,3-dihydrobenzo[b][1,4]dioxin-5-yl)amino)-4-((tetrahydro-2H-pyran-4-yl)amino)-7H-pyrrolo[2,3-d] pyrimidine-5-carbonitrile] | < 100 nM | < 100 nM | < 50 nM |
